According to patent US20260152487A1 (Sitryx Therapeutics Limited, priority 2021, published 2026):

Molecular target: T1, recombinant human PKM2 (Homo sapiens, UniProt P14618)
T1 construct: His (N); purchased R&D Systems
Experiment: Human PKM2 activation assay (Kinase-Glo Plus luminescent detection of generated ATP)
Format: biochemical
Settings: for Emax: percentage activation normalised to DMSO vehicle (LOW) and 5 μM TEPP-46 (HIGH), read-out: hPKM2 Emax; for EC50: recombinant human PKM2 activation, 4-parameter logistic fit, read-out: hPKM2 EC50
Experimental: Compound activation of recombinant human PKM2 pyruvate kinase activity was determined by biochemical assay. N-terminal His-tagged hPKM2 was sourced from R&D Systems and its substrates phosphoenolpyruvate (PEP) and ADP from Sigma-Aldrich and 2Bscientific Ltd, respectively. The Kinase-Glo® Plus luminescence assay was from Promega. All other reagents were from Sigma-Aldrich. Test Compounds were prepared as 10 mM DMSO stocks and dilution series prepared in DMSO for direct dilution into Assay Buffer comprising 50 mM imidazole, 50 mM KCl, 7 mM MgCl2, 0.01% Tween20, 0.05% BSA (pH 7.2).
Human PKM2 was diluted into Assay Buffer comprising 50 mM imidazole, 50 mM KCl, 7 mM MgCl2, 0.01% Tween20, 0.05% BSA (pH 7.2) to a final concentration of […]. Enzyme-Assay Buffer mix was dispensed into a 384-well shallow-well white-walled plate (PerkinElmer) and Test Compounds added by acoustic dispense (Echo®, Labcyte Inc.).
After 60 minutes' incubation on an orbital shaker (300 rpm, 26° C.), enzyme activity was quantified by the luminescent detection of generated ATP. Kinase-Glo® Plus reagent was added to each well and the plates incubated for a further 15 minutes on an orbital shaker in the dark (300 rpm, 26° C.) before luminescence measurement on a plate reader (PHERAstar® FSX, BMG Labtech).
Percentage activation was calculated by normalising […] signals to plate LOW (DMSO vehicle) and HIGH (5 μM TEPP-46) controls. EC50 and Emax values were determined from 4-parameter logistic fits of compound concentration-response curves.

T1 sequence (P14618 2-531 limits assumed): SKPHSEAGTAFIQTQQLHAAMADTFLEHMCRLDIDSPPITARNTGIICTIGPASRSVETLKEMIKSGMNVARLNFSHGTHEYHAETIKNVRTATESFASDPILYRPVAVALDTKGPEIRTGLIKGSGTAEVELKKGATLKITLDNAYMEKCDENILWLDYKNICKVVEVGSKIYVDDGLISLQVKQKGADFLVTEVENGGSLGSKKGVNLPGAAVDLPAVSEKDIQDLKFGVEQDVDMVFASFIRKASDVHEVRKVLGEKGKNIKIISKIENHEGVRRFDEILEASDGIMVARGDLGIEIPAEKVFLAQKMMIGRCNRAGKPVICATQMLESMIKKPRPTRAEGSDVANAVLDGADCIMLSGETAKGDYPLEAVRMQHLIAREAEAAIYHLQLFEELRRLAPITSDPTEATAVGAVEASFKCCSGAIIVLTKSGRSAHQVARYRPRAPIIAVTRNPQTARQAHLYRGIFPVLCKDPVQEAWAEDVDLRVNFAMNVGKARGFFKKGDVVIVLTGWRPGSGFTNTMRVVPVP

SMILES	Emax	EC50
COc1ccc(Cn2ncc3cc(S(=O)(=O)c4ccc(F)cc4)ccc3c2=O)cn1 [Example 147, 6-((4-fluorophenyl)sulfonyl)-2-((6-methoxypyridin-3-yl)methyl)phthalazin-1(2H)-one]	98.8%	94.8 nM
COc1ccc(Cn2ncc3cc(S(=O)(=O)c4cccc(Cl)c4)ccc3c2=O)cn1 [Example 154, 6-((3-chlorophenyl)sulfonyl)-2-((6-methoxypyridin-3-yl)methyl)phthalazin-1(2H)-one]	93.7%	141 nM
COc1ccc(Cn2ncc3cc(S(=O)(=O)c4ccc(Cl)cc4)ccc3c2=O)cn1 [Example 155, 6-((4-chlorophenyl)sulfonyl)-2-((6-methoxypyridin-3-yl)methyl)phthalazin-1(2H)-one]	71.6%	184 nM
COc1ccc(Cn2ncc3cc(S(=O)(=O)c4ccc5c(c4)OC(F)(F)O5)ccc3c2=O)cn1 [Example 156]	88.7%	91 nM
COc1ccc(Cn2ncc3cc(S(=O)(=O)c4cccc(F)c4)ccc3c2=O)cn1 [Example 157, 6-((3-fluorophenyl)sulfonyl)-2-((6-methoxypyridin-3-yl)methyl)phthalazin-1(2H)-one]	87.5%	123 nM
COc1ccc(Cn2ncc3cc(S(=O)(=O)c4ccn(C)n4)ccc3c2=O)cn1 [Example 158, 2-((6-methoxypyridin-3-yl)methyl)-6-((1-methyl-1H-pyrazol-3-yl)sulfonyl)phthalazin-1(2H)-one]	85.4%	186 nM
COc1ccc(Cn2ncc3cc(S(=O)(=O)c4cc(C)ccn4)ccc3c2=O)cn1 [Example 159, 2-((6-methoxypyridin-3-yl)methyl)-6-(4-methylpyridin-2-ylsulfonyl)phthalazin-1(2H)-one]	72.4%	501 nM
COc1ccc(Cn2ncc3cc(S(=O)(=O)c4cccc(OC)n4)ccc3c2=O)cn1 [Example 160, 6-(6-methoxypyridin-3-yl)methyl)phthalazin-1(2H)-onemethoxypyridin-2-ylsulfonyl)-2-((6-]	83.3%	237 nM
COc1ccc(Cn2ncc3cc(S(=O)(=O)c4cccc(C(N)=O)c4)ccc3c2=O)cn1 [Example 161, 3-(2-((6-methoxypyridin-3-yl)methyl)-1-oxo-1,2-dihydrophthalazin-6-ylsulfonyl)benzamide]	56.8%	211 nM
COc1ccc(Cn2ncc3cc(S(=O)(=O)c4ccccc4F)ccc3c2=O)cn1 [Example 162, 6-(2-fluorophenylsulfonyl)-2-((6-methoxypyridin-3-yl)methyl)phthalazin-1(2H)-one]	99.5%	83.4 nM
COc1ccc(Cn2ncc3cc(S(=O)(=O)c4ccccc4Cl)ccc3c2=O)cn1 [Example 163, 6-(2-chlorophenylsulfonyl)-2-((6-methoxypyridin-3-yl)methyl)phthalazin-1(2H)-one]	77.3%	135 nM
COc1ccc(Cn2ncc3cc(S(=O)(=O)c4ccccc4OC)ccc3c2=O)cn1 [Example 164, 6-(2-methoxyphenylsulfonyl)-2-((6-methoxypyridin-3-yl)methyl)phthalazin-1(2H)-one]	107%	146 nM
COc1ccnc(S(=O)(=O)c2ccc3c(=O)n(Cc4ccc(OC)nc4)ncc3c2)c1 [Example 165, 6-(4-methoxypyridin-2-ylsulfonyl)-2-((6-methoxypyridin-3-yl)methyl)phthalazin-1(2H)-one]	77.5%	456 nM
COc1ccc(Cn2ncc3cc(S(=O)(=O)c4ccc5c(c4)CC(C)(C)O5)ccc3c2=O)cn1 [Example 166, 6-((2,2-dimethyl-2,3-dihydrobenzofuran-5-yl)sulfonyl)-2-((6-methoxypyridin-3-yl)methyl)phthalazin-1(2H)-one]	99.4%	131 nM
COc1ccc(Cn2ncc3cc(S(=O)(=O)c4cnn(C)c4)ccc3c2=O)cn1 [Example 168, 2-((6-methoxypyridin-3-yl)methyl)-6-((1-methyl-1H-pyrazol-4-yl)sulfonyl)phthalazin-1(2H)-one]	96%	103 nM
COc1ccc(Cn2ncc3cc(S(=O)(=O)c4cccc(C)n4)ccc3c2=O)cn1 [Example 169, 2-((6-methoxypyridin-3-yl)methyl)-6-(6-methylpyridin-2-ylsulfonyl)phthalazin-1(2H)-one]	83%	185 nM
COc1ccc(Cn2ncc3cc(S(=O)(=O)c4cccc(OC(F)F)c4)ccc3c2=O)cn1 [Example 170, 6-(3-(difluoromethoxy)phenylsulfonyl)-2-((6-methoxypyridin-3-yl)methyl)phthalazin-1(2H)-one]	101%	82 nM
COc1ccc(Cn2ncc3cc(S(=O)(=O)c4cnc(C(F)F)s4)ccc3c2=O)cn1 [Example 173, 6-(2-(difluoromethyl)thiazol-5-ylsulfonyl)-2-((6-methoxypyridin-3-yl)methyl)phthalazin-1(2H)-one]	67.2%	152 nM

The next molecules have a lower EC50 than those just listed; values first:

Emax	EC50	SMILES
82.3%	77.2 nM	COc1ccc(Cn2ncc3cc(S(=O)(=O)c4ccc(C)s4)ccc3c2=O)cn1 [Example 171, 2-((6-methoxypyridin-3-yl)methyl)-6-(5-methylthiophen-2-ylsulfonyl)phthalazin-1(2H)-one]
115%	75.3 nM	Cc1ccc(S(=O)(=O)c2ccc3c(=O)n(Cc4cccc(N)c4)ncc3c2)s1 [Example 146, 2-(3-aminobenzyl)-6-((5-methylthiophen-2-yl)sulfonyl)phthalazin-1(2H)-one]
95.5%	65.8 nM	COc1ccc(Cn2ncc3cc(S(=O)(=O)c4ccc5c(c4)CC(C)O5)ccc3c2=O)cn1 (stereo not shown) [Example 167, 2-((6-methoxypyridin-3-yl)methyl)-6-((2-methyl-2,3-dihydrobenzofuran-5-yl)sulfonyl)phthalazin-1(2H)-one]
84.1%	61.9 nM	COc1ccc(S(=O)(=O)c2ccc3c(=O)n(Cc4ccc(OC)nc4)ncc3c2)nc1 [Example 172, 6-(5-methoxypyridin-2-ylsulfonyl)-2-((6-methoxypyridin-3-yl)methyl)phthalazin-1(2H)-one]
71.3%	58.4 nM	COc1ccc(Cn2ncc3cc(S(=O)(=O)c4cc(C)ns4)ccc3c2=O)cn1 [Example 148, 2-((6-methoxypyridin-3-yl)methyl)-6-(3-methylisothiazol-5-ylsulfonyl)phthalazin-1(2H)-one]
100%	54.6 nM	COc1ccc(S(=O)(=O)c2ccc3c(=O)n(Cc4cccc(N)c4)ncc3c2)cn1 [Example 149, 2-(3-aminobenzyl)-6-((6-methoxypyridin-3-yl)sulfonyl)phthalazin-1(2H)-one]
95.2%	19 nM	Nc1cccc(Cn2ncc3cc(S(=O)(=O)c4ccc5c(c4)OCO5)ccc3c2=O)c1 [Example 152, 2-(3-aminobenzyl)-6-(benzo[d][1,3]dioxol-5-ylsulfonyl)phthalazin-1(2H)-one]
77.2%	15.7 nM	COc1ccc(Cn2ncc3cc(S(=O)(=O)c4ccc(OC(F)F)cc4)ccc3c2=O)cn1 [Example 153, 6-(4-(difluoromethoxy)phenylsulfonyl)-2-((6-methoxypyridin-3-yl)methyl)phthalazin-1(2H)-one]
